Test results as given in patent US20250230193A1, “CYCLIC COMPOUND HAVING SELECTIVE KRAS INHIBITORY EFFECT ON HRAS AND NRAS” (CHUGAI SEIYAKU KABUSHIKI KAISHA, priority 2022, published 2025).

Experiments:
[1] = target: GDP-bound HRAS wild-type protein (Homo sapiens, UniProt P01112); assay: Binding to HRAS by surface plasmon resonance (SPR), Single Cycle Kinetics; settings: KD ratio HRAS/KRAS, SPR, GDP-bound wild-type proteins
[2] = target: GDP-bound NRAS wild-type protein (Homo sapiens, UniProt P01111); assay: Binding to NRAS by surface plasmon resonance (SPR), Single Cycle Kinetics; settings: KD ratio NRAS/KRAS, SPR, GDP-bound wild-type proteins
GDP-bound NRAS wild-type protein, sequence (P01111 whole entry): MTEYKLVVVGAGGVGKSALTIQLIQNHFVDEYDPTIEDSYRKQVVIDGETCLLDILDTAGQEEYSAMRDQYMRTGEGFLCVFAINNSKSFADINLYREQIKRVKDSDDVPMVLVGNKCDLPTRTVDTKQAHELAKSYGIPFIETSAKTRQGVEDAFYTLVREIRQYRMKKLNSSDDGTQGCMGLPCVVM

GDP-bound HRAS wild-type protein, sequence (P01112 whole entry): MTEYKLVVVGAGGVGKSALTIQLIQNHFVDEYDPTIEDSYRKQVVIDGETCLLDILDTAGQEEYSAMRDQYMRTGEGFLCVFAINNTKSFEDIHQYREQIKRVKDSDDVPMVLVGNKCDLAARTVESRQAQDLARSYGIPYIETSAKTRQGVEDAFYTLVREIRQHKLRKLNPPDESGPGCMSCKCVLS

SMILES | HRAS/KRAS (ratio of KD value with respect to GDP-bound HRAS wild-type protein to KD value with respect to KRAS) [1] | NRAS/KRAS (ratio of KD value with respect to GDP-bound NRAS wild-type protein to KD value with respect to KRAS) [2]
CCC[C@H]1C(=O)N[C@@H]([C@@H](C)CC)C(=O)N(C2CC2)CC(=O)N(C)[C@H]2C/C=C\CCN(C2=O)[C@@H](Cc2ccc(C)cc2)C(=O)N(C)CC(=O)N[C@@H](CCc2cc(F)c(C(F)(F)F)c(F)c2)C(=O)N2C[C@H](OCC)C[C@H]2C(=O)N(C)C2(CCC2)C(=O)N(C)[C@@H](C2CCCC2)C(=O)N(C)[C@H](C(=O)N2CCCC2)CC(=O)N1C [PP3113, (2S,8S,12R,14S,20S,23S,27S,30S,36S,38Z)-20-cyclopentyl-32-cyclopropyl-8-[2-[3,5-difluoro-4-(trifluoromethyl)phenyl]ethyl]-12-ethoxy-4,16,19,22,26,35-hexamethyl-30-[(1S)-1-methylpropyl]-27-propyl-2-(p-tolylmethyl)-23-(pyrrolidine-1-carbonyl)spiro[1,4,7,10,16,19,22,26,29,32,35-undecazatricyclo[34.5.1.0^10,14]dotetracont-38-ene-17,1′-cyclobutane]-3,6,9,15,18,21,25,28,31,34,42-undecone] | A (a compound having 10 or more and less than 20 is denoted as A) | A (a compound having 10 or more and less than 20 is denoted as A)
CCC[C@H]1C(=O)N[C@@H]([C@@H](C)CC)C(=O)N2CCC[C@H]2C(=O)N(C)[C@H]2C/C=C\CCN(C2=O)[C@@H](Cc2ccc(C(F)(F)F)cc2)C(=O)N(C)CC(=O)N[C@@H](CCc2cc(F)c(C(F)(F)F)c(F)c2)C(=O)N2C[C@H](OCC)C[C@H]2C(=O)N(C)C2(CCC2)C(=O)N(C)[C@@H](C2CCCC2)C(=O)N(C)[C@H](C(=O)N2CCCCC2)CC(=O)N1C [PP3114] | A (a compound having 10 or more and less than 20 is denoted as A) | AA (a compound having 20 or more is denoted as AA)
CCC[C@H]1C(=O)N[C@@H]([C@@H](C)CC)C(=O)N2CCC[C@H]2C(=O)N(C)[C@H]2C/C=C\CCN(C2=O)[C@@H](Cc2ccc(C)cc2)C(=O)N(C)CC(=O)N[C@@H](CCc2cc(F)c(C(F)(F)F)c(F)c2)C(=O)N2C[C@H](OCC)C[C@H]2C(=O)N(C)C2(CCC2)C(=O)N(C)[C@@H](C2CCCC2)C(=O)N(C)[C@H](C(=O)N2CCCCC2)CC(=O)N1C [PP3115, (1S,4S,10S,13S,17S,20S,26S,28R,32S,38S,42Z)-20-cyclopentyl-32-[2-[3,5-difluoro-4-(trifluoromethyl)phenyl]ethyl]-28-ethoxy-2,14,18,21,24,36-hexamethyl-10-[(1S)-1-methylpropyl]-17-(piperidine-1-carbonyl)-13-propyl-38-(p-tolylmethyl)spiro[2,8,11,14,18,21,24,30,33,36,39-undecazatetracyclo[37.5.1.0^4,8.0^26,30]pentatetracont-42-ene-23,1′-cyclobutane]-3,9,12,15,19,22,25,31,34,37,45-undecone] | B (a compound having 3 or more and less than 10 is denoted as B) | A (a compound having 10 or more and less than 20 is denoted as A)
CCC[C@H]1C(=O)N[C@@H]([C@@H](C)CC)C(=O)N2CCC[C@H]2C(=O)N(C)[C@H]2C/C=C\CCN(C2=O)[C@@H](Cc2ccc(C(F)(F)F)cc2)C(=O)N(C)CC(=O)N[C@@H](CCc2cc(F)c(C(F)(F)F)c(F)c2)C(=O)N2C[C@H](OCC)C[C@H]2C(=O)N(C)C2(CCC2)C(=O)N(C)[C@@H](C2CCCC2)C(=O)N(C)[C@H](C(=O)N2CCCC2)CC(=O)N1C [PP3116] | A (a compound having 10 or more and less than 20 is denoted as A) | A (a compound having 10 or more and less than 20 is denoted as A)
CCC[C@H]1C(=O)N[C@@H]([C@@H](C)CC)C(=O)N2CCC[C@H]2C(=O)N(C)[C@H]2C/C=C\CCN(C2=O)[C@@H](Cc2ccc(C)cc2)C(=O)N(C)CC(=O)N[C@@H](CCc2cc(F)c(C(F)(F)F)c(F)c2)C(=O)N2C[C@H](OCC)C[C@H]2C(=O)N(C)C2(CCC2)C(=O)N(C)[C@@H](C2CCCC2)C(=O)N(C)[C@H](C(=O)N2CCCC2)CC(=O)N1C [PP3117, (1S,4S,10S,13S,17S,20S,26S,28R,32S,38S,42Z)-20-cyclopentyl-32-[2-[3,5-difluoro-4-(trifluoromethyl)phenyl]ethyl]-28-ethoxy-2,14,18,21,24,36-hexamethyl-10-[(1S)-1-methylpropyl]-13-propyl-38-(p-tolylmethyl)-17-(pyrrolidine-1-carbonyl)spiro[2,8,11,14,18,21,24,30,33,36,39-undecazatetracyclo[37.5.1.0^4,8.0^26,30]pentatetracont-42-ene-23,1′-cyclobutane]-3,9,12,15,19,22,25,31,34,37,45-undecone] | A (a compound having 10 or more and less than 20 is denoted as A) | A (a compound having 10 or more and less than 20 is denoted as A)
CCC[C@H]1C(=O)N[C@@H]([C@@H](C)CC)C(=O)N(C)CC(=O)N(C)[C@H]2C/C=C\CCN(C2=O)[C@@H](Cc2ccc(C(F)(F)F)cc2)C(=O)N(C)CC(=O)N[C@@H](CCc2cc(F)c(C(F)(F)F)c(F)c2)C(=O)N2C[C@H](OCC)C[C@H]2C(=O)N(C)C2(CCC2)C(=O)N(C)[C@@H](C2CCCC2)C(=O)N(C)[C@H](C(=O)N2CCCCC2)CC(=O)N1C [PP3118, (2S,8S,12R,14S,20S,23S,27S,30S,36S,38Z)-20-cyclopentyl-8-[2-[3,5-difluoro-4-(trifluoromethyl)phenyl]ethyl]-12-ethoxy-4,16,19,22,26,32,35-heptamethyl-30-[(1S)-1-methylpropyl]-23-(piperidine-1-carbonyl)-27-propyl-2-[[4-(trifluoromethyl)phenyl]methyl]spiro[1,4,7,10,16,19,22,26,29,32,35-undecazatricyclo[34.5.1.0^10,14]dotetracont-38-ene-17,1′-cyclobutane]-3,6,9,15,18,21,25,28,31,34,42-undecone] | B (a compound having 3 or more and less than 10 is denoted as B) | A (a compound having 10 or more and less than 20 is denoted as A)
CCC[C@H]1C(=O)N[C@@H]([C@@H](C)CC)C(=O)N(C)CC(=O)N(C)[C@H]2C/C=C\CCN(C2=O)[C@@H](Cc2ccc(C)cc2)C(=O)N(C)CC(=O)N[C@@H](CCc2cc(F)c(C(F)(F)F)c(F)c2)C(=O)N2C[C@H](OCC)C[C@H]2C(=O)N(C)C2(CCC2)C(=O)N(C)[C@@H](C2CCCC2)C(=O)N(C)[C@H](C(=O)N2CCCCC2)CC(=O)N1C [PP3119, (2S,8S,12R,14S,20S,23S,27S,30S,36S,38Z)-20-cyclopentyl-8-[2-[3,5-difluoro-4-(trifluoromethyl)phenyl]ethyl]-12-ethoxy-4,16,19,22,26,32,35-heptamethyl-30-[(1S)-1-methylpropyl]-23-(piperidine-1-carbonyl)-27-propyl-2-(p-tolylmethyl)spiro[1,4,7,10,16,19,22,26,29,32,35-undecazatricyclo[34.5.1.0^10,14]dotetracont-38-ene-17,1′-cyclobutane]-3,6,9,15,18,21,25,28,31,34,42-undecone] | A (a compound having 10 or more and less than 20 is denoted as A) | A (a compound having 10 or more and less than 20 is denoted as A)
CCC[C@H]1C(=O)N[C@@H]([C@@H](C)CC)C(=O)N(C)CC(=O)N(C)[C@H]2C/C=C\CCN(C2=O)[C@@H](Cc2ccc(C(F)(F)F)cc2)C(=O)N(C)CC(=O)N[C@@H](CCc2cc(F)c(C(F)(F)F)c(F)c2)C(=O)N2C[C@H](OCC)C[C@H]2C(=O)N(C)C2(CCC2)C(=O)N(C)[C@@H](C2CCCC2)C(=O)N(C)[C@H](C(=O)N2CCCC2)CC(=O)N1C [PP3120, (2S,8S,12R,14S,20S,23S,27S,30S,36S,38Z)-20-cyclopentyl-8-[2-[3,5-difluoro-4-(trifluoromethyl)phenyl]ethyl]-12-ethoxy-4,16,19,22,26,32,35-heptamethyl-30-[(1S)-1-methylpropyl]-27-propyl-23-(pyrrolidine-1-carbonyl)-2-[[4-(trifluoromethyl)phenyl]methyl]spiro[1,4,7,10,16,19,22,26,29,32,35-undecazatricyclo[34.5.1.0^10,14]dotetracont-38-ene-17,1′-cyclobutane]-3,6,9,15,18,21,25,28,31,34,42-undecone] | A (a compound having 10 or more and less than 20 is denoted as A) | AA (a compound having 20 or more is denoted as AA)
CCC[C@H]1C(=O)N[C@@H]([C@@H](C)CC)C(=O)N(C)CC(=O)N(C)[C@H]2C/C=C\CCN(C2=O)[C@@H](Cc2ccc(C)cc2)C(=O)N(C)CC(=O)N[C@@H](CCc2cc(F)c(C(F)(F)F)c(F)c2)C(=O)N2C[C@H](OCC)C[C@H]2C(=O)N(C)C2(CCC2)C(=O)N(C)[C@@H](C2CCCC2)C(=O)N(C)[C@H](C(=O)N2CCCC2)CC(=O)N1C [PP3121, (2S,8S,12R,14S,20S,23S,27S,30S,36S,38Z)-20-cyclopentyl-8-[2-[3,5-difluoro-4-(trifluoromethyl)phenyl]ethyl]-12-ethoxy-4,16,19,22,26,32,35-heptamethyl-30-[(1S)-1-methylpropyl]-27-propyl-2-(p-tolylmethyl)-23-(pyrrolidine-1-carbonyl)spiro[1,4,7,10,16,19,22,26,29,32,35-undecazatricyclo[34.5.1.0^10,14]dotetracont-38-ene-17,1′-cyclobutane]-3,6,9,15,18,21,25,28,31,34,42-undecone] | A (a compound having 10 or more and less than 20 is denoted as A) | A (a compound having 10 or more and less than 20 is denoted as A)
